Where two headings read alike, the source gives them in different places.
Key:
[1] = Sample pH before SCWO, after five-minute reactor residence time and after reactor cool down; type: physicochemical
Method: Fourteen tests were conducted to determine the by-product distribution of DMMP during SCWO at different oxygen concentrations in the presence of additives. Test conditions and procedures were the same as described in Example 1. Additive concentrations were based on achieving a 1:1 molar ratio of Na^+ ions to DMMP. Based on an initial concentration of DMMP of 10,000 mg/L, the initial concentrations of each additive were 3,224 mg/L for NaOH, 4,271 mg/L for Na2 CO3 and 15.4 g/L for Na2 B4 O7 (as Na2 B4 O7.10H2 O).
The pH of each sample was measured within one hour of sample collection. The presence of the additive affected the pH of the sample collected after a five minute reactor residence time only slightly. Since the pH of the initial solution had increased upon addition of the additive, it was expected that the pH of the sample collected at supercritical conditions would also increase. However, the effect was only slightly obvious due most likely to the precipitation of the additives at supercritical conditions. After reactor cool down, the pH of samples collected after cool down increased in the presence of the additive. The pH increase which occurred between the sample collected after five minutes reactor residence time and after reactor cool down was a result of the dissolution of precipitated additive. It is believed that sodium hydroxide, sodium carbonate and sodium borate dissolved after reactor cool down and neutralized the acidic solution which was observed after the five minute reactor residence time.

[2] = Source text: Calculations are based on the reported first-order reaction kinetic model
[3] = cited from earlier work
[4] = cited from earlier work; for Pyridine Conversion: 27.6 MPa
[5] = first-order oxidation, 24.6 MPa, 530-700 °C

Compound: O.O.O.O.O.O.O.O.O.O.[Na+].[Na+].[O-]B1OB2OB([O-])OB(O1)O2 [Na2 B4 O7, sodium borate]
- pH, 5 Min. Reactor Resid. Time ([1]; hydrolysis): 2.8
- pH, After Reactor Cool Down ([1]; hydrolysis): 7.0
- pH, Initial ([1]; hydrolysis): 9
- pH, 5 Min. Reactor Resid. Time ([1]; partial oxidation): 3.2
- pH, After Reactor Cool Down ([1]; partial oxidation): 7.3
- pH, Initial ([1]; partial oxidation): 9

Compound: N [ammonia]
- Reactor Residence Time Required to Achieve 9% Conversion ([2]; 400 °C): 774 min
- Reactor Residence Time Required to Achieve 90% Conversion ([2]; 400 °C): 18888 min
- Reactor Residence Time Required to Achieve 99% Conversion ([2]; 400 °C): 37775 min
- Reactor Residence Time Required to Achieve 99.9% Conversion ([2]; 400 °C): 56663 min
- Reactor Residence Time Required to Achieve 99.99% Conversion ([2]; 400 °C): 75551 min
- Reactor Residence Time Required to Achieve 9% Conversion ([2]; 450 °C): 111 min
- Reactor Residence Time Required to Achieve 90% Conversion ([2]; 450 °C): 2710 min
- Reactor Residence Time Required to Achieve 99% Conversion ([2]; 450 °C): 5421 min
- Reactor Residence Time Required to Achieve 99.9% Conversion ([2]; 450 °C): 8131 min
- Reactor Residence Time Required to Achieve 99.99% Conversion ([2]; 450 °C): 10842 min
- Reactor Residence Time Required to Achieve 9% Conversion ([2]; 500 °C): 20 min
- Reactor Residence Time Required to Achieve 90% Conversion ([2]; 500 °C): 500 min
- Reactor Residence Time Required to Achieve 99% Conversion ([2]; 500 °C): 1000 min
- Reactor Residence Time Required to Achieve 99.9% Conversion ([2]; 500 °C): 1500 min
- Reactor Residence Time Required to Achieve 99.99% Conversion ([2]; 500 °C): 2000 min
- Reactor Residence Time Required to Achieve 9% Conversion ([2]; 550 °C): 5 min
- Reactor Residence Time Required to Achieve 90% Conversion ([2]; 550 °C): 113 min
- Reactor Residence Time Required to Achieve 99% Conversion ([2]; 550 °C): 227 min
- Reactor Residence Time Required to Achieve 99.9% Conversion ([2]; 550 °C): 340 min
- Reactor Residence Time Required to Achieve 99.99% Conversion ([2]; 550 °C): 453 min
- Reactor Residence Time Required to Achieve 9% Conversion ([2]; 600 °C): 0.1 min
- Reactor Residence Time Required to Achieve 90% Conversion ([2]; 600 °C): 3 min
- Reactor Residence Time Required to Achieve 99% Conversion ([2]; 600 °C): 7 min
- Reactor Residence Time Required to Achieve 99.9% Conversion ([2]; 600 °C): 10 min
- Reactor Residence Time Required to Achieve 99.99% Conversion ([2]; 600 °C): 13 min
- reactor residence time required to convert 10% ammonia ([2]; below 450 °C): at least two hours
- activation energy [3, 5]: 37.5 kcal/mol
- pre-exponential factor [3, 5]: 3.16e+06 s⁻¹
- temperature at which oxidation rate becomes appreciable ([3]; supercritical water): greater than 550 °C

Compound: c1ccncc1 [pyridine]
- Pyridine Conversion ([4]; Test 513: 522 °C, 6.6 sec, 1990 mg/L, O2 0.024 mole/L): 74%
- Pyridine Conversion ([4]; Test 516: 499 °C, 7.1 sec, 1990 mg/L, O2 0.026 mole/L): 66%
- Pyridine Conversion ([4]; Test 524: 499 °C, 7.1 sec, 3050 mg/L, O2 0.031 mole/L): 75%
- Pyridine Conversion ([4]; Test 525: 475 °C, 7.8 sec, 1990 mg/L, O2 0.029 mole/L): 25%
- Pyridine Conversion ([4]; Test 529: 451 °C, 8.8 sec, 3050 mg/L, O2 0.038 mole/L): 6%
- Pyridine Conversion ([4]; Test 541: 522 °C, 6.6 sec, 3050 mg/L, O2 0.027 mole/L): 94%
- Pyridine Conversion ([4]; Test 542: 474 °C, 7.8 sec, 3050 mg/L, O2 0.035 mole/L): 22%
- Pyridine Conversion ([4]; Test 661: 527 °C, 3.8 sec, 3530 mg/L, O2 0.010 mole/L): 55%
- Pyridine Conversion ([4]; Test 668: 525 °C, 3.9 sec, 3530 mg/L, O2 0.014 mole/L): 53%
- Pyridine Conversion ([4]; Test 676: 527 °C, 3.8 sec, 3530 mg/L, O2 0.020 mole/L): 68%
- pyridine converted ([4]; at 524 °C (Test No. 524)): 75%

Compound: sodium hydroxide [NaOH]
- pH, 5 Min. Reactor Resid. Time ([1]; hydrolysis): 2.1
- pH, After Reactor Cool Down ([1]; hydrolysis): 5.3
- pH, Initial ([1]; hydrolysis): 12.3
- pH, 5 Min. Reactor Resid. Time ([1]; oxidation): 3.6
- pH, After Reactor Cool Down ([1]; oxidation): 5.0
- pH, Initial ([1]; oxidation): 12.3
- pH, 5 Min. Reactor Resid. Time ([1]; partial oxidation): 2.2
- pH, After Reactor Cool Down ([1]; partial oxidation): 6.0
- pH, Initial ([1]; partial oxidation): 12.3

From patent publication US5565616A (priority 1994, dated 1996)
